PubChem BioAssay (NCI)
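Interpolation was linear, between the two tested concentrations surrounding the appropriate level; five concentrations were tested over 48 hours in 96-well plates. GI50 is the concentration that inhibits growth by half. TGI: total growth inhibition.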

Key:
Experiment in all cases: NCI tumour cell line growth inhibition, 48 h
CCRF-CEM leukemia = system: CCRF-CEM leukemia
DU-145 prostate = system: DU-145 prostate
K-562 leukemia = system: K-562 leukemia
M14 melanoma = system: M14 melanoma
MALME-3M melanoma = system: MALME-3M melanoma
NCI/ADR-RES ovarian = system: NCI/ADR-RES ovarian
OVCAR-5 ovarian = system: OVCAR-5 ovarian
PC-3 prostate = system: PC-3 prostate
RXF 393 renal = system: RXF 393 renal
T-47D breast = system: T-47D breast

Structure (SMILES) | GI50 (CCRF-CEM leukemia) | TGI (CCRF-CEM leukemia) | GI50 (DU-145 prostate) | TGI (DU-145 prostate) | GI50 (K-562 leukemia) | TGI (K-562 leukemia) | GI50 (M14 melanoma) | TGI (M14 melanoma) | GI50 (MALME-3M melanoma) | TGI (MALME-3M melanoma) | GI50 (NCI/ADR-RES ovarian) | TGI (NCI/ADR-RES ovarian) | GI50 (OVCAR-5 ovarian) | TGI (OVCAR-5 ovarian) | GI50 (PC-3 prostate) | TGI (PC-3 prostate) | GI50 (RXF 393 renal) | TGI (RXF 393 renal) | GI50 (T-47D breast) | TGI (T-47D breast)
N#C/C(=C1C=C/C(=N/O)C(Br)=C/1)c1ccccc1 | 0.661 µM | 8.91 µM | 3.24 µM | 9.69 µM | 0.878 µM | 12.6 µM | 3.79 µM | 20 µM | 4.72 µM | 22.6 µM | 2.61 µM | 84.1 µM | 2.6 µM | 6.8 µM | 0.568 µM | 6.33 µM | 3.01 µM | 11.5 µM | 2.19 µM | 20.6 µM
CCOc1cccc(/C=N/NC(=O)c2ccccc2Nc2ccnc(C(F)(F)F)c2)c1O | 0.136 µM | > 31.4 µM | 0.63 µM | > 100 µM | 0.322 µM | 10.4 µM | 0.661 µM | 2.91 µM | 0.835 µM | 43.6 µM | 0.506 µM | 26.3 µM | 5.39 µM | > 100 µM | 0.428 µM | > 39.1 µM | 11.5 µM | > 100 µM | 0.582 µM | 37.5 µM
O=C(NCCOCCOCCNc1cccc2c1C(=O)N(C1CCCNC1=O)C2=O)c1cc2c(o1)C(=O)c1ccccc1C2=O (stereo not drawn) | 4.48 µM | > 100 µM | 1.69 µM | 3.11 µM | 2.75 µM | 11.1 µM | 0.772 µM | 2.18 µM | 0.176 µM | 0.401 µM | 10.3 µM | 32 µM | 1.77 µM | 3.19 µM | 2.63 µM | 46 µM | 1.8 µM | 3.99 µM | 2.53 µM | 8.81 µM
COc1ccc2c(c1)c(-c1nc(-c3cn(C)c4ncccc34)cs1)cn2CCCN1CCCCC1 | 2.05 µM | 4.04 µM | 1.62 µM | 2.98 µM | 1.64 µM | 3.4 µM | 1.65 µM | 3.11 µM | 1.64 µM | 3.25 µM | 1.76 µM | 3.46 µM | 1.64 µM | 3.25 µM | 1.76 µM | 3.27 µM | 1.68 µM | 3.29 µM | 1.83 µM | 4.28 µM
COc1ccc(/C(=C2\O[C@@H]([C@H]3COC(C)(C)O3)[C@H]3OC(C)(C)O[C@@H]23)c2cc(OC)c(OC)c(OC)c2)cc1O | 3.75 µM | > 100 µM | 3.29 µM | 13.3 µM | 3.22 µM | > 100 µM | 2.4 µM | 5.9 µM | 5.46 µM | > 100 µM | 2.52 µM | 6.91 µM | > 100 µM | > 100 µM | 5.11 µM | > 100 µM | 2.12 µM | 5.89 µM | 25.1 µM | > 100 µM
CC1=C(C(=O)Nc2ccc3[nH]ncc3c2)C(c2ccc3ccccc3c2)CC(=O)N1 (stereo not drawn) | > 25 µM | > 25 µM | > 25 µM | > 25 µM | > 25 µM | > 25 µM | > 25 µM | > 25 µM | 11 µM | > 25 µM | > 25 µM | > 25 µM | 20.5 µM | > 25 µM | > 25 µM | > 25 µM | 4.11 µM | > 23.8 µM | > 25 µM | > 25 µM
Cc1cc(N(CCOS(C)(=O)=O)CCOS(C)(=O)=O)ccc1C=Nc1ccc(-c2nc(Cc3ccccc3)sc2C)cc1 |  | 24.3 µM |  | 11.7 µM |  | 65.5 µM |  | 20.7 µM |  | 26.8 µM |  | 47.8 µM |  | 37.8 µM |  | 22.1 µM |  | 4.92 µM |  | 23.8 µM
O=[N+]([O-])/C=C\c1ccc(Cl)c(Cl)c1 |  | 4.75 µM | 1.81 µM | 4.15 µM | 0.379 µM | 5.08 µM | 1.63 µM | 3.29 µM | 1.46 µM | 6.05 µM | 2.18 µM | 4.78 µM | 8.89 µM | 31.3 µM | 1.24 µM | 3.93 µM | 1.68 µM | 3.11 µM | 2.82 µM | 13.9 µM
CCc1c(Oc2ccc(C(C)=O)cc2)c2ccccc2[nH]c1=O |  | > 43.6 µM | 25.4 µM | 73.6 µM | 18.8 µM | > 76.9 µM | 18.5 µM | 65.9 µM | 9.09 µM | 42.3 µM | 23 µM | > 74 µM | 31.8 µM | > 100 µM | 0.97 µM | > 40.8 µM | 20.1 µM | 45.7 µM | 4.07 µM | 24.6 µM
